From patent US7259146B2, “Neuroprotective peptides” (Ortho-McNeil Pharmaceutical, Inc., priority 2000, dated 2007)
Entries after “also recorded” stand apart in the source; their conditions may differ.

What was measured:
PC-12 cells [1] = experiment: Glutamate toxicity in PC-12 cells (trypan blue exclusion); assay type: cell-based, rat; conditions: for protection against glutamate-induced cell death (in words): pre-treatment 24 hr, 200 μM glutamate
Procedure: PC-12 cells (from a rat Pheochromocytoma) were cultured on poly-D-Lysine coated tissue culture plastic in DMEM containing 10% FBS and 5% Horse serum. To induce the neuronal phenotype in PC-12 cells, serum was removed and the cells were treated with NGF (50 ng/ml). Cells were grown for 7 days in the presence of the NGF then used for experiments. PC-12 cells were cultured as described above. 24 hr prior to insult, cells were treated with rhEPO at concentrations ranging from 1 pm to 1 nm. On the day of the experiment, cells were exposed to 200 μM glutamate for 30 min. Cells were then washed 2 times with fresh media to remove the glutamate and cultured in fresh media containing NGF but no EPO. After 24 hr cells were assayed for viability using a trypan blue exclusion assay. […] Cells were then washed gently with PBS, then fixed with 10% formalin. Cell viability was determined by counting the total number of cells vs. the number of trypan blue positive (dead) cells.

[2] = test system: rat cerebral cortical cultures; experiment: Neurite outgrowth assay (MAP2-FITC immunofluorescence), cortical cultures; assay type: cell-based
Description: (§1) Dissociated hippocampal and cortical cell cultures were established from embryonic day 18 rat fetuses as previously described (Mattson et al., 1994). Briefly, fetuses were removed via cesarean section from pregnant moms (Sprague-Dawley) anesthetized with halothane according to the AVMA Panel on Euthanasia. Pups were decapitated and the brains were removed and placed in HEPES-buffered Hank's Balanced Salt solution (HBSS; Gibco). The hippocampi and cortices were dissected out and pooled according to tissue-type. Tissue was trypsinized for 15 min (1 mg/ml trypsin-HBSS; Worthington), rinsed with fresh HBSS, incubated in trypsin inhibitor (1 mg/ml; Sigma) for 5 min, rinsed again with fresh HBSS and then triturated in 1 ml fresh HBSS with a fire-polished glass pipette. Dissociated cells were seeded at 30,000 cells/well onto poly-D-lysine coated 96-well plates (Collaborative BioScience). Each well contained 100 μl of Eagle's Minimal Essential Media (MEM; Gibco) supplemented with 26 mM NaHCO3 (Sigma), 56 mM glucose (Sigma), 15 mM KCl (Sigma), 1 mM sodium pyruvate (Sigma), 1.1 mM L-glutamine (Sigma), 10% (v/v) heat-inactivated fetal bovine serum (Hyclone), and 0.001% gentamicin sulfate (Sigma) (pH 7.4). Cells were allowed to attach for 24 h in a humidified 37° C. 5% CO2 incubator before experimental treatment. The culture media was aspirated and exchanged with fresh media every three days.
(§2) Twenty-four hours after plating, cultures were treated with vehicle (PBS+0.1% BSA), 100 ng of various growth factors (brain derived neurotrophic factor (BDNF; Promega), glial-derived neurotrophic factor (GDNF; Promega), nerve growth factor (NGF; Boehringer Mannheim), basic fibroblast growth factor (bFGF; Boehringer Mannheim), insulin-like growth factor-1 (IGF-1; Boehringer Mannheim), neurotrophin-3 (NT3; Calbiochem), neurotrophin-4 (NT4; Calbiochem), ciliary neurotrophic factor (CNTF; Calbiochem), epidermal growth factor (EGF; Calbiochem), vascular endothelial growth factor (VEGF; Calbiochem)), or rhEPO (prepared same as above; 10 fM-10 nM)). Each treatment condition was run in quadruplicate or octuplicate. On the third day in culture, the media was aspirated off and replaced with fresh media and test compound. At one week in culture, the cells were fixed with 10% phosphate-buffered formalin for 15 min, then rinsed with DPBS (Sigma) and placed in blocking serum for 30 min (horse serum; 1:50 dilution in DPBS; Vector Labs). Cultures were rinsed again with DPBS and then incubated in primary antibody for 2 hr (microtubule-associated protein-2 (MAP-2) is a selective marker for dendritic processes; anti-mouse monoclonal (Chemicon); 1:1000 dilution of MAP-2 in antibody diluent (Zymed)). Negative control wells were incubated in antibody diluent alone. Background signal was determined by blank wells (cell-free) incubated with or without antibody. Cultures were rinsed again with DPBS and then placed in fluorescein for 1 hr (FITC; anti-mouse IgG; rat adsorbed; 1:50 dilution in DPBS; Vector Labs). Cultures were rinsed a final time with DPBS and then the plates were read on a Cytofluor 4000 fluorescence plate reader. Neurite outgrowth was expressed as percent change from control (vehicle; mean fluorescence±SD).
(§3) Dissociated hippocampal and cortical cell cultures were established from embryonic day 18 rat fetuses as previously described (Mattson et al., 1994). Briefly, fetuses were removed via cesarean section from pregnant moms (Sprague-Dawley) anesthetized with halothane according to the AVMA Panel on Euthanasia. Pups were decapitated and the brains were removed and placed in HEPES-buffered Hank's Balanced Salt solution (HBSS; Gibco). The hippocampi and cortices were dissected out and pooled according to tissue-type. […]

PC-12 cells [3] = experiment: NGF withdrawal in PC-12 cells; assay type: cell-based, rat; conditions: for protection against NGF withdrawal-induced cell death (in words): treated 24 hr before NGF removal, viable cells at 12, 24, 48, 72 hr
Procedure: PC-12 cells (from a rat Pheochromocytoma) were cultured on poly-D-Lysine coated tissue culture plastic in DMEM containing 10% FBS and 5% Horse serum. To induce the neuronal phenotype in PC-12 cells, serum was removed and the cells were treated with NGF (50 ng/ml). Cells were grown for 7 days in the presence of the NGF then used for experiments.
PC-12 cells were cultured as described above in a 96 well poly-d-lysine coated multi-well plate and treated with rhEPO (1 pm to 10 nm) for 24 hr prior to NGF withdrawal. On the day of the experiment the cells were washed with buffer 3 times to remove NGF and then cultured in fresh media without NGF. Immediately following NGF washout cells were counted (t=0) to determine the number of living cells. Cell viability was based on morphological characteristics including phase brightness, presence of axons, and absence of blebbing. Cell counts were performed at 12 hr, 24 hr, 48 hr and 72 hr and the number of viable cells were scored.

[4] = cited from earlier work
rat hippocampal cultures = experiment: Neurite outgrowth assay (MAP2-FITC immunofluorescence), hippocampal cultures; assay type: cell-based
Description: as §1, §2, §3

## EPO: purified, recombinant human EPO (rhEPO), formulated and distributed under the trademarks EPREX, ERYPO or PROCRIT
PC-12 cells [1]; 1 to 10 pm given 24 hours prior to glutamate (200 um), p<0.001
  cell survival, Trypan Blue exclusion assay: significantly increased cell survival
PC-12 cells [1]; glutamate toxicity
  peak concentration for the neuroprotective effect: 10 pm
PC-12 cells [1]; glutamate toxicity, 1 nm
  neuroprotective effect at 1 nm: no significant effect
PC-12 cells [1]; glutamate toxicity, protection decreasing above 10 pm
  dose response curve for the neuroprotective effect: bi-phasic; also recorded: decreased at higher doses
PC-12 cells [1]
  protection against glutamate-induced cell death (in words): significant decrease in cell death
PC-12 cells [1]; listed as rhEPO
  protection against glutamate-induced cell death (in words): protects rat PC12 cells against glutamate-induced cell death
[2]
  neurite outgrowth (in words): significant increase in neurite outgrowth; also recorded: promotes neurite outgrowth
[2]; concentration dependent
  concentration of maximal neurite outgrowth promoting activity: maximal activity observed at pM levels
[2]; growth factors 100 ng
  ability to increase neurite outgrowth compared to known growth factors: greater than or equal to that of known growth factors; also recorded: superior in inducing neurite outgrowth relative to the majority of known growth factors
[2]; rhEPO 10 fM-10 nM, one week in culture
  neurite outgrowth response over control: 15–29%
PC-12 cells [3]; growth factor withdrawal
  optimum / peak concentration for the neuroprotective effect: 10 pm
PC-12 cells [3]; growth factor withdrawal, 1 nm
  neuroprotective effect at 1 nm: no significant effect
PC-12 cells [3]; growth factor withdrawal, protection decreasing above 10 pm
  dose response curve for the neuroprotective effect: bi-phasic
PC-12 cells [3]
  protection against NGF withdrawal-induced cell death (in words): significant decrease in cell death; also recorded: increased the number of viable cells at each time point
PC-12 cells [3]; listed as rhEPO
  protection against NGF withdrawal-induced cell death (in words): protects rat PC12 cells against NGF withdrawal-induced cell death
[4]; patients
  tolerability in studies conducted to date: well tolerated
[4]; subjects treated for up to 2 years
  antibody titers against Epoetin alfa: No antibody titers
Rat hippocampal cultures; comparison of hippocampal and cortical cultures
  overall neurite outgrowth response, hippocampal versus cortical cultures: larger outgrowth response in the hippocampal cultures
Rat hippocampal cultures; hippocampal cultures
  neurite outgrowth (in words): significant increase in neurite outgrowth; also recorded: promotes neurite outgrowth
Rat hippocampal cultures; hippocampal cultures, concentration dependent
  concentration of maximal neurite outgrowth promoting activity: maximal activity observed at pM levels
Rat hippocampal cultures; hippocampal cultures, rhEPO 10 fM-10 nM, one week in culture
  neurite outgrowth response over control: 12–44%
Rat hippocampal cultures; hippocampal cultures, growth factors 100 ng
  outgrowth promoting activity compared to known growth factors: superior to several growth factors including BDNF, NGF and VEGF
